In series [1] the test system is Phytophthora infestans. It is filed as in vivo. The settings on record: tomato plants, preventive spray, 500 ppm of active ingredient, evaluated 5 days after inoculation.
For series [2] the following is noted: pH 2.7.
Procedure: (§1) Measurement of IogP values was performed according EEC directive 79/831 Annex V.A8 by HPLC (High Performance Liquid Chromatography) on reversed phase columns with the following methods:
(§2) Measurement of LC-MS was done at pH 2.7 with 0.1% formic acid in water and with acetonitrile (contains 0.1% formic acid) as eluent with a linear gradient from 10% acetonitrile to 95% acetonitrile.
(§3) Calibration was done with not branched alkan2-ones (with 3 to 16 carbon atoms) with known logP-values (measurement of logP values using retention times with linear interpolation between successive alkanones). lambda-maX-values were determined using UV-spectra from 200 nm to 400 nm and the peak values of the chromatographic signals.
For series [3] the following is noted: pH 2.7. This is another data set of the same source.
Procedure: as §1, §2, §3

Experimental findings from patent publication US9743665B2, “Fungicidal 3-{phenyl[heterocyclylmethoxy)imino]methyl}-oxadiazolone derivatives” (BAYER CROPSCIENCE AKTIENGESELLSCHAFT, priority 2013, dated 2017) are described below.

Marks after values point to notes of the source that are not given here.

As to `C#CCCOC(=O)Nc1csc(CO/N=C(/c2ccccc2)c2noc(=O)n2C)n1` [Example 1], the “% efficacy” value in series [1] was 98%. Also, the LogP in series [2] is 2.97^[a]. `Cn1oc(=O)nc1/C(=N\OCn1ccc([N+](=O)[O-])n1)c1ccccc1` [Example 2, 2-methyl-3-[(Z)-{[(3-nitro-1H-pyrazol-1-yl)methoxy]imino}(phenyl)methyl]-1,2,4-oxadiazol-5(2H)-one]: the chromatographic logP in series [3] stood at 2.1. Still for that read-out and setting: to `Cn1c(C(=NOCc2nc(Br)cs2)c2ccccc2)noc1=O` [Example 3, 3-[{[(4-bromo-1,3-thiazol-2-yl)methoxy]imino}(phenyl)methyl]-4-methyl-1,2,4-oxadiazol-5(4H)-one] belongs 3.25.

As to `Cn1oc(=O)nc1/C(=N\OCc1nc(C#CC2CC2)cs1)c1ccccc1` [Example 4, 3-[(Z)-({[4-(cyclopropylethynyl)-1,3-thiazol-2-yl]methoxy}imino)(phenyl)methyl]-2-methyl-1,2,4-oxadiazol-5(2H)-one], the “% efficacy” value in series [1] was 100%. In series [3], this compound returned a chromatographic logP of 3.04.

In turn, `Cn1oc(=O)nc1/C(=N\OCn1ccc(N)n1)c1ccccc1` [Example 8, 3-[(Z)-{[(3-amino-1H-pyrazol-1-yl)methoxy]imino}(phenyl)methyl]-2-methyl-1,2,4-oxadiazol-5(2H)-one] showed a chromatographic logP in series [3] of 1.29.

Regarding `Cn1c(/C(=N\OCc2nc(C(=O)NC3CCCCC3)cs2)c2ccccc2)noc1=O` [Example 9], the “% efficacy” value in series [1] is recorded as 79%. In addition, the LogP in series [2] is 3.43^[a]. As for `Cn1c(/C(=N\OCc2nc(NC(=O)C(C)(C)C)cs2)c2ccccc2)noc1=O` [Example 11], the “% efficacy” value in series [1] stood at 100%. In addition, the LogP in series [2] is 3.23^[a]. The like results for `Cn1c(/C(=N\OCc2nc(C#CCCc3ccccc3)cs2)c2ccccc2)noc1=O` [Example 12] were, in that order, 100% and 4.30^[a]. Consider `Cn1oc(=O)nc1/C(=N\OCc1nc(Br)cs1)c1ccccc1` [Example 14, 3-[(Z)-{[(4-bromo-1,3-thiazol-2-yl)methoxy]imino}(phenyl)methyl]-2-methyl-1,2,4-oxadiazol-5(2H)-one], for which the “% efficacy” value in series [1] came out at 74%. In addition, the chromatographic logP in series [3] was determined as 2.6.

In the case of `CCCCC#Cc1csc(CO/N=C(/c2ccccc2)c2noc(=O)n2C)n1` [Example 21], the “% efficacy” value in series [1] is 100%. Besides, the LogP in series [2] was 4.26^[a]. As to `CCCC/C=C/c1csc(CO/N=C(/c2ccccc2)c2noc(=O)n2C)n1` [Example 24], the “% efficacy” value in series [1] amounted to 98%. Besides, the LogP in series [2] was 4.77^[a]. In the case of `CCCCC#Cc1csc(CO/N=C(/c2ccccc2)c2noc(=O)[nH]2)n1` [Example 25], the LogP in series [2] is 3.39^[a]. The same measure, in the same setting: next, `CCCC#Cc1csc(CO/N=C(/c2ccccc2)c2noc(=O)[nH]2)n1` [Example 26]: 3.47^[a]. Consider `Cn1c(/C(=N\OCc2nc(NC(=O)COc3ccccc3)cs2)c2ccccc2)noc1=O` [Example 28], for which the “% efficacy” value in series [1] turned out to be 73%. Further, the LogP in series [2] is 3.30^[a]. Take `CCCCC/C=C/c1csc(CO/N=C(/c2ccccc2)c2noc(=O)n2C)n1` [Example 30]: the “% efficacy” value in series [1] is 97%. For the same compound, the LogP in series [2] was 5.23^[a].

Turning to `Cn1c(/C(=N\OCc2nc(C#CC3CCCCC3)cs2)c2ccccc2)noc1=O` [Example 31], the “% efficacy” value in series [1] amounted to 94%. Further, the LogP in series [2] was 4.80^[a]. Consider `O=c1[nH]c(/C(=N\OCc2nc(C#CC3CCCCC3)cs2)c2ccccc2)no1` [Example 32], for which the LogP in series [2] was 4.33^[a].

In the case of `Cn1c(/C(=N\OCc2nc(NC(=O)COCc3ccccc3)cs2)c2ccccc2)noc1=O` [Example 35], in series [1], the “% efficacy” value is reported as 93%. The LogP in series [2] was 3.45^[a].

Consider `CCCC(C)C(=O)Nc1csc(CO/N=C(/c2ccccc2)c2noc(=O)n2C)n1` (stereo not drawn) [Example 36], for which the “% efficacy” value in series [1] stood at 99%. In series [2], the LogP is 3.45^[a]. `CCCCCC#Cc1csc(CO/N=C(/c2ccccc2)c2noc(=O)n2C)n1` [Example 37]: the “% efficacy” value in series [1] is recorded as 100%. The LogP in series [2] was 4.72^[a]. The like results for `Cn1c(/C(=N\OCc2nc(C#CCc3ccccc3)cs2)c2ccccc2)noc1=O` [Example 39] were, in that order, 88% and 4.07^[a]. As for `Cn1c(/C(=N\OCc2nc(/C=C/Cc3ccccc3)cs2)c2ccccc2)noc1=O` [Example 41], the LogP in series [2] is 4.39^[a].

For the compound `C=CCOC(=O)Nc1csc(CO/N=C(/c2ccccc2)c2noc(=O)n2C)n1` [Example 42], in series [2], the LogP is 3.02^[a]. Take `Cn1oc(=O)nc1/C(=N\OCc1nc(C(=O)NC(C)(C)C)cs1)c1ccccc1` [Example 43]: the LogP in series [2] was 2.61^[a]. In turn, `N#C/C(=N\OCn1ccc([N+](=O)[O-])n1)c1ccccc1` [Example IV-1, (2Z)-{[(3-nitro-1H-pyrazol-1-yl)methoxy]imino}(phenyl)acetonitrile] registered a chromatographic logP in series [3] of 2.9. On to `COC(=O)c1csc(CON=C(C#N)c2ccccc2)n1` [Example IV-2], for which the LogP in series [2] was 2.80^[a].

Turning to `N#CC(=NOCc1nc(Br)cs1)c1ccccc1` [Example IV-3, {[(4-bromo-1,3-thiazol-2-yl)methoxy]imino}(phenyl)acetonitrile], the chromatographic logP in series [3] was 3.61. Turning to `N#CC(=NOCn1ccc(N)n1)c1ccccc1` [Example IV-4], in series [2], the LogP is 1.86^[a]. Same read-out and setting: next, `N#CC(=NOCc1nc(C#CCCCc2ccccc2)cs1)c1ccccc1` [Example IV-5]: 5.19^[a]; `CCCC#Cc1csc(CON=C(C#N)c2ccccc2)n1` [Example IV-6]: 4.41^[a]; `CCCCC#Cc1csc(CON=C(C#N)c2ccccc2)n1` [Example IV-7]: 4.83^[a]. For `N#CC(=NOCc1nc(C#CC2CC2)cs1)c1ccccc1` [Example IV-8], in series [2], the LogP was 4.04^[a].

`N#CC(=NOCc1nc(C#CC2CCCCC2)cs1)c1ccccc1` [Example IV-9]: the LogP in series [2] is 5.42^[a]. Turning to `CCCCCC#Cc1csc(CON=C(C#N)c2ccccc2)n1` [Example IV-10], the LogP in series [2] was 5.27^[a]. With `NC(=NO)C(=NOCn1ccc(N)n1)c1ccccc1` [Example V-1], in series [2], the LogP is 0.65^[a]. With `NC(=NO)C(=NOCc1nc(Br)cs1)c1ccccc1` [Example V-2], the LogP in series [2] is 1.86^[a].

In the case of `CCCC#Cc1csc(CON=C(C(N)=NO)c2ccccc2)n1` [Example V-3], the LogP in series [2] was 2.59^[a].

For the compound `CCCCC#Cc1csc(CON=C(C(N)=NO)c2ccccc2)n1` [Example V-4], the LogP in series [2] was 2.98^[a].

As to `NC(=NO)C(=NOCc1nc(C#CC2CCCCC2)cs1)c1ccccc1` [Example V-5], the LogP in series [2] was 3.42^[a].

Take `CCCCCC#Cc1csc(CON=C(C(N)=NO)c2ccccc2)n1` [Example V-6]: in series [2], the LogP is 3.37^[a].

In series [3], `CN(O)C(=N)/C(=N\OCn1ccc([N+](=O)[O-])n1)c1ccccc1` [Example VI-1, (2Z)—N-hydroxy-N-methyl-2-{[(3-nitro-1H-pyrazol-1-yl)methoxy]imino}-2-phenylethanimidamide] gave a chromatographic logP of 1.15. Still for that read-out and setting: to `CN(O)C(=N)/C(=N\OCc1nc(Br)cs1)c1ccccc1` [Example VI-2, (2Z)-2-{[(4-bromo-1,3-thiazol-2yl)methoxy]imino}-N-hydroxy-N-methyl-2-phenylethanimidamide] belongs 1.49.

The term chromatographic logP denotes lipophilicity estimated from chromatographic retention. A lower chromatographic logP goes with a more hydrophilic compound.
